For series [1], the system named is Hepatitis C virus. Nature of the series: Antiviral activity against Hepatitis C virus genotype 1b expressing wild type NS3/4A protease infected in HuH7 cells. The class given is functional, organism-based, Hepacivirus hominis. The following applies: Huh-7.
Series [2] has as its system Hepatitis C virus. Nature of the series: Antiviral activity against Hepatitis C virus genotype 1b infected in HuH7 cells. The series is classed as functional, organism-based, Hepacivirus hominis. The following applies: Huh-7.
Series [3] deals with Hepatitis C virus. As to the kind of experiment: Antiviral activity against Hepatitis C virus genotype 1b expressing NS3/4A protease A156T mutant infected in HuH7 cells. The class given is functional, organism-based, Hepacivirus hominis. The settings on record: Huh-7.
Series [4] can be described thus: Inhibition of Hepatitis C virus genotype 1a NS3/4A protease using Ac-DE-Dap(QXL520)-EE-Abu-psi-COO]-AS-C(5-FAMsp)-NH2 as substrate by FRET analysis. On the set-up: species or system Hepatitis C virus subtype 1a.
Series [5] concerns Hepatitis C virus. Nature of the series: Antiviral activity against Hepatitis C virus genotype 1b expressing NS3/4A protease […] mutant infected in HuH7 cells. The following applies: Huh-7. The class given is functional, organism-based, Hepacivirus hominis.
Series [6] has as its system Hepatitis C virus. As to the kind of experiment: Antiviral activity against Hepatitis C virus genotype 1b expressing NS3/4A protease D168A mutant infected in HuH7 cells. The following applies: Hepacivirus hominis, Huh-7.
Series [7] concerns Hepatitis C virus. Nature of the series: Antiviral activity against Hepatitis C virus genotype 1b expressing NS3/4A protease A156V mutant infected in HuH7 cells. The class given is functional, organism-based, Hepacivirus hominis. The settings on record: Huh-7.
Series [8] has as its system Hepatitis C virus. Nature of the series: Antiviral activity against Hepatitis C virus genotype 1b expressing NS3/4A protease R155K mutant infected in HuH7 cells. The following applies: Huh-7. The class given is functional, organism-based, Hepacivirus hominis.
The test system of series [9] is Hepatitis C virus. Nature of the series: Antiviral activity against Hepatitis C virus genotype 1b expressing NS3/4A protease A156S mutant infected in HuH7 cells. The settings on record: Huh-7. The series is classed as functional, organism-based, Hepacivirus hominis.
The subject of series [10] is Hepatitis C virus. As to the kind of experiment: Antiviral activity against Hepatitis C virus genotype 1a infected in HuH7 cells. The series is classed as functional, organism-based, Hepacivirus hominis. The following applies: subtype 1a, Huh-7.
A short description of series [11]: Apparent permeability of the compound at pH 7.05 by PAMPA assay. The series is classed as ADME.
Series [12] in a line: Clearance in rat. The series is classed as ADME, organism-based. The settings on record: in vivo.
Series [13] is described as follows: Oral bioavailability in rat. The series is classed as ADME, organism-based. The following applies: in vivo.

pEC50, pIC50: −log10 of the molar value.

As usually defined, the pEC50 is the negative decadic logarithm of the EC50, by convention in mol/L. A higher pEC50 goes with a low EC50. A word on the pIC50: it is −log10 of the IC50, conventionally taken in molar units. Lower therefore signals a large IC50. Broadly, the Papp is the rate of passage across a membrane or cell layer, normalised by area and donor concentration. Usually clearance stands for the volume of plasma or blood freed of the substance per unit of time. High values mean a high capacity for elimination, low ones a low capacity for elimination. A word on the bioavailability: it is dose-corrected exposure relative to a reference, in per cent.

Take `COc1ccc2c(O[C@@H]3C[C@H]4C(=O)N[C@]5(C(=O)NS(=O)(=O)C6CC6)C[C@H]5/C=C\CCCCCC(OC(=O)NC(C)(C)C)C(=O)N4C3)cc(-c3nc(C(C)C)cs3)nc2c1C` (stereo not given in full): the pEC50 in the series on Hepatitis C virus [1] was 8.92; with Hepatitis C virus [2], 9.10; with Hepatitis C virus [3] it was 7.07; with Hepatitis C virus [5] it was 5.97; with Hepatitis C virus [6], 6.34; with Hepatitis C virus [7], 6.49. Besides, the pEC50 is 6.49 in the series on Hepatitis C virus [8], 8.60 with Hepatitis C virus [9] and 8.30 in the series on Hepatitis C virus [10]. The same molecule gave a pIC50 in series [4] of 7.51.

`CCOC1CCCCC/C=C\[C@@H]2C[C@@]2(C(=O)NS(=O)(=O)C2CC2)NC(=O)[C@@H]2C[C@@H](Oc3cc(-c4nc(C(C)C)cs4)nc4c(C)c(OC)ccc34)CN2C1=O` (stereo not given in full): the negative-log EC50 (pEC50) was 7.20 in the series with Hepatitis C virus [1]; 7.10 with Hepatitis C virus [2]; 6.40 in the series with Hepatitis C virus [3]; 6.16 with Hepatitis C virus [5]; 6.29 with Hepatitis C virus [6]; 6.36 with Hepatitis C virus [7]. Moreover, the negative-log EC50 (pEC50) is 5.40 in the series with Hepatitis C virus [8], 7.53 with Hepatitis C virus [9] and 6.60 in the series with Hepatitis C virus [10]. The molecule further showed a pIC50 in [4] of 6.97.

On to `COc1ccc2c(O[C@@H]3C[C@H]4C(=O)N[C@]5(C(=O)NS(=O)(=O)C6CC6)C[C@H]5/C=C\CCCCCC(OC(=O)OC(C)(C)C)C(=O)N4C3)cc(-c3nc(C(C)C)cs3)nc2c1C` (stereo not given in full), for which the pEC50 is 7.20 with Hepatitis C virus [1], 7.40 in the series with Hepatitis C virus [2] and 7.30 in the series with Hepatitis C virus [10]. The negative logarithm of the IC50 (pIC50) in [4] is 6.71.

With `COc1ccc2c(O[C@@H]3C[C@H]4C(=O)N[C@]5(C(=O)NS(=O)(=O)C6CC6)C[C@H]5/C=C\CCCCCC(OC(=O)N5CCCCC5)C(=O)N4C3)cc(-c3nc(C(C)C)cs3)nc2c1C` (stereo not given in full), the pEC50 with Hepatitis C virus [1] was 8.15; in the series on Hepatitis C virus [2] it was 8.49; in the series with Hepatitis C virus [3], 7.04; with Hepatitis C virus [5], 5.40; with Hepatitis C virus [6], 5.67; in the series on Hepatitis C virus [7] it was 6.18. For the same molecule, the pEC50 is 5.83 with Hepatitis C virus [8], 8.01 with Hepatitis C virus [9] and 8.00 with Hepatitis C virus [10]. The pIC50 in series [4] is 7.25.

As for `COc1ccc2c(O[C@@H]3C[C@H]4C(=O)N[C@]5(C(=O)NS(=O)(=O)C6CC6)C[C@H]5/C=C\CCCCCC(O)C(=O)N4C3)cc(-c3nc(C(C)C)cs3)nc2c1C` (stereo not given in full), the pEC50 was 8.89 in the series on Hepatitis C virus [1]; 9.10 in the series with Hepatitis C virus [2]; 8.59 in the series with Hepatitis C virus [3]; 7.34 in the series on Hepatitis C virus [5]; 7.20 in the series on Hepatitis C virus [6]; 8.49 with Hepatitis C virus [7]. Moreover, the pEC50 with Hepatitis C virus [8] is 7.22; in the series on Hepatitis C virus [9], 10.00; in the series on Hepatitis C virus [10], 9.00. The same molecule had a negative-log IC50 (pIC50) in [4] of 8.17.

Consider `COc1ccc2c(O[C@@H]3C[C@H]4C(=O)N[C@]5(C(=O)NS(=O)(=O)C6CC6)C[C@H]5/C=C\CCCCCC(OC(=O)n5ccnc5)C(=O)N4C3)cc(-c3nc(C(C)C)cs3)nc2c1C` (stereo not given in full), for which the pEC50 is 9.30 with Hepatitis C virus [1]; 9.30 in the series on Hepatitis C virus [2]; 8.55 with Hepatitis C virus [3]; 6.82 with Hepatitis C virus [5]; 7.15 in the series on Hepatitis C virus [6]; 8.41 with Hepatitis C virus [7]. In addition, the pEC50 in the series on Hepatitis C virus [8] is 7.32; with Hepatitis C virus [9] it was 10.00; with Hepatitis C virus [10] it was 9.10. Also, the negative-log IC50 (pIC50) in [4] was 8.49. The apparent permeability (Papp) in [11] was 1.2 ×10⁻⁶ cm/s. The molecule further showed a clearance in series [12] of 53.7 mL/min/kg. The molecule further came in with a bioavailability in series [13] of 12%.

Regarding `CC(C)(C)OC(=O)N[C@H]1CCCCC/C=C\[C@@H]2C[C@@]2(C(=O)NS(=O)(=O)C2CC2)NC(=O)[C@@H]2C[C@@H](OC(=O)N3Cc4cccc(F)c4C3)CN2C1=O` [DANOPREVIR], the pEC50 in the series with Hepatitis C virus [1] is 10.00; in the series with Hepatitis C virus [3], 8.17; with Hepatitis C virus [5], 7.61; in the series with Hepatitis C virus [6], 7.31; in the series on Hepatitis C virus [7], 8.08; in the series on Hepatitis C virus [8], 7.09. Further, the pEC50 with Hepatitis C virus [9] is 8.80. Further, the pIC50 in series [4] is 9.40.

Source of the values: ChEMBL document CHEMBL2016556, “Discovery of novel P3-oxo inhibitor of hepatitis C virus NS3/4A serine protease” (Bioorg Med Chem Lett, 2012).
